Patent US20200009085A1, “Methods For Treating Ovarian Cancer” (RADIUS HEALTH, INC., priority 2016, published 2020)
Entries after “also recorded” stand apart in the source; their conditions may differ. Where a name gives a salt, the structure may show the parent alone.

Tests used:
[1] = test system: breast cancer xenograft models; settings: regardless of ESR1 mutation status and prior endocrine therapy; cited from earlier work
ERα = biological target: T1, ERα (Homo sapiens, UniProt P03372); settings: ERα versus estrogen receptor beta (ERβ); cited from earlier work
T1 sequence (P03372 1-595): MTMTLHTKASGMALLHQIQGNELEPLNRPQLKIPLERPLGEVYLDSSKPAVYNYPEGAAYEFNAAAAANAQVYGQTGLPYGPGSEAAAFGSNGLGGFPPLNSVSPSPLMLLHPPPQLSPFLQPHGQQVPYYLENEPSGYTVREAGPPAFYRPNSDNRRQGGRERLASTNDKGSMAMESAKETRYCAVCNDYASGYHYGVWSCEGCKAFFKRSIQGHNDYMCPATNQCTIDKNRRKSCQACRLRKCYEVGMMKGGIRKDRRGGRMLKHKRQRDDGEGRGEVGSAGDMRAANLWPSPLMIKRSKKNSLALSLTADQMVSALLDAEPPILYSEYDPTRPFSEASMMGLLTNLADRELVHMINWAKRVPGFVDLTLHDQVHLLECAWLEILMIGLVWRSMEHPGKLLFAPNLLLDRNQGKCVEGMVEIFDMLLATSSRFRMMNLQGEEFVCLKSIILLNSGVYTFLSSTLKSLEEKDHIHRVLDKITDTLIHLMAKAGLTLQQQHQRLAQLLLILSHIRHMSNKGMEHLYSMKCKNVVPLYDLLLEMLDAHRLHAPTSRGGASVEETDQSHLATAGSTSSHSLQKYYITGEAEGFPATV

[2] = test system: OV-10-0050 ovarian cancer tumor; test: In vivo xenograft PDX model (OV-10-0050 ovarian patient derived xenograft)
Method: RAD1901 used in the examples below was (6R)-6-(2-(N-(4-(2-(ethylamino)ethyl)benzyl)-N-ethylamino)-4-methoxyphenyl)-5,6,7,8-tetrahydronaphthalen-2-ol dihydrochloride, manufactured by IRIX Pharmaceuticals, Inc. (Florence, S.C.). RAD1901 was stored as a dry powder, formulated for use as a homogenous suspension in 0.5% (w/v) methylcellulose in deionized water, and for animal models was administered p.o.
All mice were housed in pathogen-free housing in individually ventilated cages with sterilized and dust-free bedding cobs, access to sterilized food and water ad libitum, under a light dark cycle (12-14 hour circadian cycle of artificial light) and controlled room temperature and humidity.
The PDX shown in FIG. 1 was the OV-10-0050 ovarian cancer tumor, derived from an ovarian adenocarcinoma from a person. The tumor was grade 3 and positive for cytokeratin indicating an ovarian epithelial type. The tumor also stained positive for ER and an ER target gene (progesterone receptor). The OV-10-0050 PDX model was established from viable human tumor tissue that had been serially passaged in animals (female Balb/c nude mice) a limited number of times to maintain tumor heterogeneity. […]
Tumor sizes were measured twice per week in two dimensions using a caliper, and the volume was expressed in mm^3 using the formula: V=0.5 a×b^2 where a and b were the long and short diameters of the tumor, respectively. […]
TGI was calculated for each group using the formula: TGI (%)=[1−(Ti−T0)/(Vi−V0)]×100; Ti is the average tumor volume of a treatment group on a given day, T0 is the average tumor volume of the treatment group on the day of grouping, Vi is the average tumor volume of the vehicle control group on a given day with Ti, and V0 is the average tumor volume of the vehicle group on the day of grouping. […]
A one-way ANOVA was performed to compare tumor volume among RAD1901-treted groups compared to the vehicle-treated group on day 32 of treatment. All data were analyzed using Graphpad Prism. p<0.05 was considered to be statistically significant.

CCNCCc1ccc(CN(CC)c2cc(OC)ccc2[C@@H]2CCc3cc(O)ccc3C2)cc1 [RAD1901, (6R)-6-(2-(N-(4-(2-(ethylamino)ethyl)benzyl)-N-ethylamino)-4-methoxyphenyl)-5,6,7,8-tetrahydronaphthalen-2-ol dihydrochloride]
tumor growth inhibition and/or regression [1]: inhibit tumor growth and/or drive tumor regression
binding preference ERα versus ERβ (ERα): preferentially bind ERα
tolerability (reason the group was taken down) ([2]; 60 mg/kg p.o. q.d., Day 32, tumor-bearing Balb/c nude mice): weakness and heavy body weight loss
tumor regression ([2]; OV-10-0050 PDX, 30 mg/kg and 60 mg/kg p.o. daily, individual tumor sizes on Day 32, FIG. 2, dihydrochloride): drive tumor regression; also recorded: tumor regressions in some animals
tumor growth inhibition (TGI) ([2]; OV-10-0050 PDX, RAD1901 30 or 60 mg/kg p.o. q.d., day 32, approximately equal activity at both dose groups, FIG. 1): about 80%
